Measurements as given in BindingDB's records for doi:10.1016/j.ejmech.2012.02.023 (Sun Yat-Sen University, 2012).

Experiment: Inhibition of TNF-alpha-induced NF-kappaB p65 nuclear translocation in human A549 cells after 2 hrs by fluorescence assay

Row | SMILES | IC50
1 | COc1ccc(/C=C/C(=O)c2cccc(-c3cccc(F)c3)c2)cc1 | > 50 µM
2 | COc1cccc(/C=C/C(=O)c2cccc(-c3cccc(F)c3)c2)c1OC | 24.1 µM
3 | COc1ccc(/C=C/C(=O)c2cccc(-c3ccc(F)nc3)c2)cc1O | > 50 µM
4 | COc1ccc(/C=C/C(=O)c2cccc(-c3cccc(F)c3)c2)cc1O | 9.59 µM
5 | O=C(/C=C/c1ccc(Br)cc1)c1cccc(-c2cccc(F)c2)c1 | > 50 µM
6 | COc1ccc(/C=C/C(=O)c2cccc(-c3ccc(F)cc3)c2)cc1 | > 50 µM
7 | COc1ccc(-c2cc(C(=O)/C=C/c3cccc(OC)c3OC)ccc2N)cc1OC | 11.9 µM
8 | COc1ccccc1/C=C/C(=O)c1cccc(-c2cccc(F)c2)c1 | 35.3 µM
9 | COc1ccc(/C=C/C(=O)c2cccc(-c3ccc(F)cc3)c2)cc1OC | > 50 µM
10 | O=C(/C=C/c1ccc(Cl)cc1)c1cccc(-c2cccc(F)c2)c1 | 24.4 µM
11 | COc1ccc(-c2cc(C(=O)/C=C/c3ccc(F)cc3)ccc2N)cc1OC | 21.3 µM
12 | O=C(/C=C/c1cccc(Br)c1)c1cccc(-c2cccc(F)c2)c1 | 11.2 µM
13 | COc1ccc(OC)c(/C=C/C(=O)c2ccc(N)c(-c3ccc(F)cc3)c2)c1 | 10.3 µM
14 | O=C(/C=C/c1ccccc1Br)c1cccc(-c2cccc(F)c2)c1 | 13.7 µM
15 | COc1cc(/C=C/C(=O)c2ccc(N)c(-c3ccc(F)cc3)c2)cc(Br)c1O | > 50 µM
16 | COc1ccc(/C=C/C(=O)c2ccc(N)c(-c3ccc(F)cc3)c2)cc1 | > 50 µM
17 | O=C(/C=C/c1cccc(-c2ccc(F)cc2)c1)c1ccc(F)cc1 | > 50 µM
18 | COc1ccc(/C=C/C(=O)c2ccc(N)c(-c3ccc(OC)c(OC)c3)c2)c(OC)c1 | 1.7 µM
19 | COc1cc(/C=C/C(=O)c2ccc(N)c(-c3ccc(F)cc3)c2)ccc1O | 6.83 µM
20 | COc1cc(/C=C/C(=O)c2cccc(-c3cccc(F)c3)c2)ccc1O | 12.9 µM
21 | COc1ccc(/C=C/C(=O)c2cccc(Br)c2)cc1O | > 50 µM
22 | COc1ccc(OC)c(/C=C/C(=O)c2ccc(N)c(-c3ccc(OC)c(OC)c3)c2)c1 | 3.19 µM
23 | COc1ccc(/C=C/C(=O)c2cccc(Br)c2)cc1OC | > 50 µM
24 | COc1ccc(/C=C/C(=O)c2ccc(N)c(-c3ccc(F)cc3)c2)cc1OC | > 50 µM
25 | Nc1ccc(C(=O)/C=C/c2ccc(O)c(F)c2)cc1-c1ccc(F)cc1 | > 50 µM
26 | COc1cc(/C=C/C(=O)c2ccc(N)c(-c3ccc(F)cc3)c2)cc(OC)c1OC | 11.6 µM
27 | COc1ccc(/C=C/C(=O)c2cccc(Br)c2)cc1 | > 50 µM
28 | COc1ccc(/C=C/C(=O)c2cccc(-c3cccc(F)c3)c2)cc1OC | 33.4 µM
